Measurements taken from patent US9296710B2, “Bicyclo (3.1.0) hexane-2, 6-dicarboxylic acid derivatives as mGlu2 receptor agonist” (Eli Lilly and Company, priority 2011, dated 2016).
Structures can show the parent of a compound that is named as a salt.

Columns and labels:
[1] = tested on: PCP-induced hyperlocomotor activity in mice; assay: Reversal of Phencyclidine (PCP)-Induced Hyperlocomotor Activity in Mice; type: in vivo, mouse
Excerpt: This assay for Reversal of Phencyclidine (PCP)-Induced Hyperlocomotor Activity in Mice is run substantially as the Reversal of Phencyclidine (PCP)-Induced Hyperlocomotor Activity in Rats assay provided above, using mice instead of rats and with the changes noted below.
Motor activity is monitored by placing individual male, ICR (CD-1), (Harlan, Indianapolis, Ind.) mice in transparent, plastic shoe-box cages of the dimensions 45×25×20 cm, with 0.5 cm depth of wood chips as bedding, and plastic lid on top of the cage. Motor monitors (Kinder Scientific) consist of a rectangular rack of 12 photobeams arranged in an 8×4 formation, (or a high density grouping of 22 in a 15×7 pattern) at a height of 2.5 cm. The shoe box cage is placed inside of these racks, with the racks on a 3 foot high tabletop in an isolated room. A compound of the present invention is dosed (intraperitoneal route, non-prodrug) usually within a range of 0.3-30 mg/kg; though higher doses may be used, 30 minutes prior to a 7.5 mg/kg challenge dose of phencyclidine (PCP). On the test day, mice are placed in the test cage and allowed to acclimate for 45 minutes prior to PCP challenge; mice are monitored for an additional 60 minutes following PCP administration.
Power analyses have determined that 7-8 mice per group are needed to have appropriate statistical power for detecting treatment differences (power=0.8).

[2] = tested on: immobility in forced swim test in mice; assay: Forced Swim Test in Rodents (mice); type: in vivo, mouse; conditions: for ED60 (60% of the amount of immobility relative to vehicle controls): intraperitoneal dosing 60 min prior to testing
Experimental: In this assay, mechanisms with purported antidepressant-like activity decrease immobility in a brief inescapable forced swim episode.
The forced-swim test was conducted in mice (male, NIH-Swiss mice, 20-25 g, Harlan Sprague-Dawley, Indianapolis, Ind.). Mice are placed in clear plastic cylinders (diameter 10 cm; height: 25 cm) filled to 6 cm with 22-25° C. water for six min. The duration of immobility is recorded during the last 4 min of a six-minute trial. The compounds of Examples 2, 3, 8, 11, and 12 are tested following intraperitoneal dosing, 60 min prior to testing. Imipramine is used as a positive control for these studies. Compounds are formulated in a water vehicle, with minimal NaOH added. The amount of time spent immobile (defined as movements only necessary to keep the subject's head above water) is the dependent measure and recorded by an observer blinded to the drug treatment of the subjects. Data are analyzed by post-hoc Dunnett's test with alpha level set at 0.05.

[3] = In Vitro Intestinal Prodrug Hydrolysis Assay; type: in vitro ADME; conditions: 1 h, 10 µM, pH 7.4
Experimental: Frozen human duodenum intestinal homogenates (1:2 tissue:buffer ratio using 100 mM Tris Phosphate buffer, pH 7.4) are obtained from Celsius In Vitro Technologies (Baltimore, Md.) that were both phenylmethylsulphonylfluoride (PMSF) and EDTA free.
Each lot of human duodenum is obtained from a single donor and the intestine is scraped and the sections are frozen separate. All original tissue collections are performed at 4° C. and immediately frozen at −70° C.
Hydrolysis of the positive control, Internal Prodrug Compound A to Internal Compound Drug A, run in every batch averaged 75.3% (n=20). Final values are then normalized relative to the formation of Internal Compound Drug A.

[4] = molecular target: T1, PepT1 (Homo sapiens, UniProt P46059); assay: In Vitro PepT1 GlySar Inhibition Screen; type: cell-based; conditions: prodrug at 5 mM, pH 6.0, PepT1 transiently transfected HeLa cells, 5 μM [14C]Gly-Sar and 20 μM cold Gly-Sar; read-out: Mean GlySar Uptake Inhibition %
T1 construct: expressed in transfected cells; host or cells: HeLa cells (ATCC), transient transfection with FUGENE6
T1 sequence (P46059 1-708): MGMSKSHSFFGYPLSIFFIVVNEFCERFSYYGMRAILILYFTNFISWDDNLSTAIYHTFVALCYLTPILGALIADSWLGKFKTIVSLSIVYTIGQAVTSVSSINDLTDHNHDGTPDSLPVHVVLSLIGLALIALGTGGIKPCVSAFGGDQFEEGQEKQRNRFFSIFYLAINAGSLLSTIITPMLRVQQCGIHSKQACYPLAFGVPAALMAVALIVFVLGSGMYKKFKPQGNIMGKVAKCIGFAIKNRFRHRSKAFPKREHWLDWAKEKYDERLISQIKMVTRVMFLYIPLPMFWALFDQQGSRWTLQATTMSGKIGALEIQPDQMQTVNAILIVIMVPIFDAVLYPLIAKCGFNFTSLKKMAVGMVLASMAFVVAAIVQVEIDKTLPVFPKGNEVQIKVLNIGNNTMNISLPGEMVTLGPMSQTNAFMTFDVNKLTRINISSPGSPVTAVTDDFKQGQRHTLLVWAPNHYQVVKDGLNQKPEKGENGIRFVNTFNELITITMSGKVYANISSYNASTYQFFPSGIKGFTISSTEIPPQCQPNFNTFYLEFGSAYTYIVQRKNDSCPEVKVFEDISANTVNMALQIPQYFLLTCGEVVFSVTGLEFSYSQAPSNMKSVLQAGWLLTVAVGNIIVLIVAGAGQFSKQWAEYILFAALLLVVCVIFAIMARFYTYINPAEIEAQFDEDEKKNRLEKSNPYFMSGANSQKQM
Experimental: PepT1 assays are established to examine the ability of the amino acid prodrug compounds to interact with the intestinal absorption transporter PepT1.
HeLa cells, derived from human cancer cells, (American Type Culture Collection) are grown in Hyclone Medium (Invitrogen, Cat# SH30243) containing 10% fetal bovine serum (FBS), 0.1 mM non essential amino acids (NEAA), and 100 units/mL penicillin with 100 μg/mL streptomycin at 37° C. in a 5% CO2 humidified atmosphere. The cell line is used for up to 40 passages and then discarded. Frozen cells in 1 mL vials are thawed in water bath for 1-2 minutes and added to 5 mL of cell medium at 37° C. Each of the T-flasks is provided with 8.5 mL of the fresh medium and 1.5 mL of the cell stock. Cells are passaged twice during a week. […] Each new flask receives a combination of 8.5 mL of fresh medium and 1.5 mL of cell stock, in order to obtain 1:6 cell dilution. Cells are incubated at 37° C., until ready for the uptake study.
Cells that are 70-80% confluent in the T-flasks are plated 1 day prior to the transfection procedure. The flask with the cell stock is treated with PBS-EDTA and trypsin to detach the cells, and transfection medium is used from this point. Transfection medium consists of Dulbecco's Modified Eagle Medium (DMEM)+NEAA. To each well, 0.5 mL of the cell mixture is added (1.3×10^5 is the desired cell concentration) and the cells are incubated at 37° C. overnight. Twenty four hours before the assay, cells are transfected with PEPT1. Transfection mixture is prepared by mixing 600 μL of serum free transfection medium, 18 μL of FUGENE6® (Roche Diagnostics), and 11 μg of the PepT1 DNA. The transfection reagent-DNA complex is incubated for 20 minutes and 24 μL of the reagent-DNA complex is added to each well.
Inhibition of PEPT1-mediated [glycyl-1-2-^14C]Glyclysarcosine (GlySar) uptake activity is measured in the cells cultured in the 24-well plates 24-hours post transfection as previously published (Zhang et al. 2004. J. Pharm. Exper Ther. 310:437-445). To measure the ability of a compound of the present invention to inhibit the uptake of [^14C]Gly-Sar, prodrug compounds are incubated with 80 to 90% confluent PepT1 transiently transfected HeLa cells at 5 mM in pH 6.0 uptake medium in the presence of 5 μM [^14C]Gly-Sar (Moravek Biochemicals) and 20 μM cold Gly-Sar. Uptake media consists of 140 mM NaCl, 5.4 mM KCl, 1.8 mM CaCl2, 0.8 mM MgSO4, 5 mM Glucose, 25 mM tris(hydroxymethyl)aminomethane buffer (TRIS). The solution is then brought to pH 6.0 using 2-(N-morpholino)ethanesulfonic acid. The incubation volume is 500 μL and is performed at room temperature for 3 minutes. To stop the uptake at the conclusion of the incubation time, the uptake media is aspirated off of the cell monolayer and 500 μL of ice cold PBS added to the well. The cells are washed 3 times with 500 μL of room temperature PBS without Ca^+2 and Mg^+2. The cells are then lysed with 300 μL of 1% TRITON® X100 H2O solution. A 200 μL aliquot is removed and radioactivity is determined by liquid scintillation counting to measure the [^14C]Gly-Sar present in each of the incubation wells. A no inhibitor control is established and the percent inhibition of each prodrug is calculated with respect to this control.

[5] = tested on: stress-induced hyperthermia in rats; assay: Attenuation of Stress-Induced Hyperthermia in Rats; type: in vivo, rat; conditions: i.p., 3 mg/kg
Excerpt: In many anxiety disorders, hyperthermia occurs as part of the pathology and is considered a symptom of the disease. Compounds which attenuate stress-induced hyperthermia in animals are believed to be useful in treating anxiety disorders in humans. Generalized anxiety disorder is an example of such disorders that may be treated with such compounds. The conventional and minimally-invasive method for analyzing stress-induced hyperthermia is by measuring body temperature, and stress-induced increases in body temperature, via rectal thermometer. Male Fischer F-344 rats (Harlan, Indianapolis, Ind., USA) weighing between 275-350 g are tested. All animals are individually-housed with food and automated water available ad libitum, and maintained on a 12 h light/dark cycle (lights on at 06:00) Animals are fasted for approximately 12-18 hours before the experiment, which is conducted during the light phase. Rats are dosed one hour prior to the experiment by intraperitoneal (i.p.) route of administration in a dose volume of 1 mL/kg. The vehicle used was water with enough NaOH added to achieve a pH between 5-7. The mGluR5 antagonist MTEP (3-[(2-methyl-1,3-thiazol-4-yl)ethynyl]pyridine) and mGlu2/3 agonist LY317206 were used as quality controls, given that they produced reliable efficacy in this model Immediately following dosing, rats are returned to their home cage, and the experimenter turns off the lights and leaves the room. The dosing room is darkened for the remainder of the 1-hr pretreatment period.
After the pretreatment period, rats are taken individually to a brightly lit adjacent room where baseline body temperatures are determined by insertion of a rectal probe lubricated with mineral oil. Body temperature is assessed using a […] BAT-12® Microprobe Thermometer with a […] RET-2® rat rectal probe (Physitemp Instruments Inc., Clifton, N.J., USA). The probe is inserted approximately 2 cm into the rectum, to measure the core body temperature (this is the baseline body temperature, T1, in degrees Celsius). Ten minutes later a second body temperature measurement is recorded (T2). […]

Cl.N[C@@]1(C(=O)O)C[C@@H](Sc2nnc(C(F)F)[nH]2)[C@H]2[C@H](C(=O)O)[C@H]21 [Example 8, (1R,2S,4R,5R,6R)-2-Amino-4-(5-difluoromethyl-1H-[1,2,4]triazol-3-ylsulfanyl)-bicyclo[3.1.0]hexane-2,6-dicarboxylic acid hydrochloride]
reversal of PCP-induced locomotor activity ([1]; single dose of 10 mg/kg): 52% | ED60 (60% of the amount of immobility relative to vehicle controls) [2]: 7.95 mg/kg

N[C@@]1(C(=O)O)C[C@H](Sc2c[nH]nn2)[C@H]2[C@H](C(=O)O)[C@H]21 [Example 11, (1R,2S,4S,5R,6R)-2-Amino-4-(1H-triazol-4-ylsulfanyl)bicyclo[3.1.0] hexane-2,6-dicarboxylic acid hydrochloride]
ED50 ([1]; Mus musculus, i.p. administration, 30 minutes prior to 7.5 mg/kg PCP): 1.2 mg/kg | efficacy in forced swim test, second study ([2]; i.p., higher doses (3-30 mg/kg)): efficacy was lost | ED60 (60% of the amount of immobility relative to vehicle controls) [2]: 0.88 mg/kg

CSCC[C@H](N)C(=O)N[C@@]1(C(=O)O)C[C@@H](Sc2nnc(C(F)(F)F)[nH]2)[C@H]2[C@H](C(=O)O)[C@H]21.Cl [Example 17, (1R,2S,4R,5R,6R)-2-((S)-2-Amino-4-methylsulfanyl-butyrylamino)-4-(5-trifluoromethyl-1H-[1,2,4]triazol-3-ylsulfanyl)-bicyclo[3.1.0]hexane-2,6-dicarboxylic acid hydrochloride]
In Vitro Human Intestinal Hydrolysis % (relative to positive control) [3]: 63.3%

Cl.NCC(=O)N[C@@]1(C(=O)O)C[C@@H](Sc2nnc(C(F)(F)F)[nH]2)[C@H]2[C@H](C(=O)O)[C@H]21 [Example 18, (1R,2S,4R,5R,6R)-2-(glycylamino)-4-{[5-(trifluoromethyl)-1H-1,2,4-triazol-3-yl]sulfanyl}bicyclo[3.1.0] hexane-2,6-dicarboxylic acid hydrochloride]
In Vitro Human Intestinal Hydrolysis % (relative to positive control) [3]: 65.5%

C[C@H](N)C(=O)N[C@@]1(C(=O)O)C[C@@H](Sc2cn[nH]n2)[C@H]2[C@H](C(=O)O)[C@H]21.Cl [Example 19, (1R,2S,4R,5R,6R)-2-[[(2S)-2-Aminopropanoyl]amino]4-(2H-1,2,3-triazol-4-ylsulfanyl)bicyclo[3.1.0] hexane-2,6-dicarboxylic acid hydrochloride]
In Vitro Human Intestinal Hydrolysis % (relative to positive control) [3]: 58.1%

CSCC[C@H](N)C(=O)N[C@@]1(C(=O)O)C[C@@H](Sc2cn[nH]n2)[C@H]2[C@H](C(=O)O)[C@H]21.Cl [Example 21, (1R,2S,4R,5R,6R)-2-((S)-2-Amino-4-methylsulfanyl-butyrylamino)-4-(2H-[1,2,3]triazol-4-ylsulfanyl)-bicyclo[3.1.0]hexane-2,6-dicarboxylic acid hydrochloride]
In Vitro Human Intestinal Hydrolysis % (relative to positive control) [3]: 63.8% | inhibition at 5000 µM [4]: 57.4%

Cc1nc(C#Cc2cccnc2)cs1 [MTEP, 3-[(2-methyl-1,3-thiazol-4-yl)ethynyl]pyridine, reference compound]
reduction of stress-induced hyperthermia [5]: 53%
